What all share (format): binding
For one test, the target named is T1, ADORA1 (Homo sapiens, UniProt P30542).
T1 construct: purchased Promega (in-house HiBiT-GPCR construct library, NanoBRET)
T1 sequence (P30542 1-326): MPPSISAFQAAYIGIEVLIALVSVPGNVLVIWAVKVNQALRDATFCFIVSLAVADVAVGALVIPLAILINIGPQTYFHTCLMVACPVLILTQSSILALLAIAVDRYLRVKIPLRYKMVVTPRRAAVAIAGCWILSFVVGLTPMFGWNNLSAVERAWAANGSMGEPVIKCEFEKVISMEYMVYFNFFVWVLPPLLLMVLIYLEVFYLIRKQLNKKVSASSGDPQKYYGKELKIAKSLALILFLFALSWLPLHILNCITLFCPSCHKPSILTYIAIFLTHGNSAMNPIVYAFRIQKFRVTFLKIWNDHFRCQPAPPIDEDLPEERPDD
Put plainly: NanoBRET screen HiBiT-ADORA1 in HEK293. The following applies: ADORA1. The protocol:
(§1) Each tracer candidate was screened across the entire library of HiBiT-GPCR constructs using NanoBRET as the detection modality. As depicted in Figure 4A, the specificity of interactions was evaluated through decrease in BRET due to competitive displacement of a bound tracer by excess parental compound. Each tracer was analyzed for binding to each HiBiT-GPCR fusion in the absence and in the presence of competing parental compound. Briefly, HEK293 cells were transfected with HiBiT-GPCR constructs diluted into promoterless DNA to reduce expression and maximize translocation to the cell surface. Each tracer candidate was then screened at concentrations of 1 μM and 0.1 μM across cells expressing these fusions. Cells were treated for 1.5 h with tracer either alone or in the presence of 20 μM competing parental compound (i.e., control). BRET was measured upon addition of purified LgBiT and subsequent complementation with HiBiT genetically fused to a GPCR. The specificity of interactions was assessed through a decrease in BRET signal due to competitive displacement of the bound tracer. To further gauge the robustness of these interactions, the fold response over the control (i.e., BRETtracer/BRETcontrol) was calculated. We chose a 1.5-fold response, which translates to ≥7-fold signal over noise as the minimal threshold required to score an interaction as positive. […]. Below we highlight the screening results obtained for our exemplary fluorescent tracers based on Clozapine, Amitriptyline and AZD1283.
(§2) HiBiT-GPCR DNA constructs were diluted in 10 mM Tris pH 8 to a final concentration of 0.01 μg/μL, arrayed in 96-well plates and stored at −20 °C. For transfection, HEK293 cells were suspended in Opti-MEM (without phenol red) supplemented with 2% fetal bovine serum (Seradigm) and 100 units/mL penicillin–streptomycin (Gibco) at a final concentration of 220,000 cells/mL and dispensed into white 96-well plates at 90 μL/well. Subsequent transfections and screens were carried using an Agilent Bravo Automated Liquid Handling Platform. First, the 96-well HiBiT DNA arrays were diluted 25-fold in Opti-MEM (without serum or phenol red) to a final concentration of 0.0004 μg/μL and 20 μL of the diluted DNAs were transferred into new 96-well plates. Next, promoterless carrier DNA (1 μg/μL) was diluted 25-fold (0.04 μg/μL) and then dispensed into the diluted arrays at 20 μL/well. Following brief mixing, Viafect transfection reagent (Promega) diluted 16-fold into Opti-MEM was dispensed into the plates at 40 μL/well. After mixing by pipetting, plates were incubated for 10 min on the pipetting station deck. The DNA-transfection reagent complexes were then added to plates containing cells. To facilitate the screen, 10 μL of DNA-transfection reagent complexes were added in duplicates to the top 4 and bottom 4 rows, resulting in two identical 48-well arrays per plate. Plates with transfected cells were incubated for 18–20 h at 37 °C/5% CO2. A screen of each tracer across the entire library using two different concentrations requires duplicate plates of transfected cells. Depending on the number of tracers being screened, transfections can be scaled up using the same ratios. The next day, for each tracer, four 20× screening solutions in tracer dilution buffer (Promega) were prepared: two duplicates at final concentration of 20 μM and two duplicates at a final concentration of 2 μM. A competing unmodified compound was added to one of each duplicate at a final concentration of 400 μM. The four resulting solutions were diluted 4-fold in Opti-MEM without serum or phenol red to generate 5× solutions (5 µM and 0.5 µM tracer +/− 100 μM competing compound). To screen the library, a BioTek MultiFlo FX liquid dispenser was used to dispense 22.5 µL of tracer solution to the top 4 rows and 22.5 µL tracer + competing compound solution to the 4 bottom rows. Plates were briefly mixed on an orbital shaker and incubated for 1.5 h at room temperature. […]
For orientation: Bioluminescence resonance energy transfer reports proximity on the nanometre scale.

In the next test the target is T2, BDKRB1 (Homo sapiens, UniProt P46663).
T2 construct: purchased Promega (in-house HiBiT-GPCR construct library, NanoBRET)
T2 sequence (P46663 1-353): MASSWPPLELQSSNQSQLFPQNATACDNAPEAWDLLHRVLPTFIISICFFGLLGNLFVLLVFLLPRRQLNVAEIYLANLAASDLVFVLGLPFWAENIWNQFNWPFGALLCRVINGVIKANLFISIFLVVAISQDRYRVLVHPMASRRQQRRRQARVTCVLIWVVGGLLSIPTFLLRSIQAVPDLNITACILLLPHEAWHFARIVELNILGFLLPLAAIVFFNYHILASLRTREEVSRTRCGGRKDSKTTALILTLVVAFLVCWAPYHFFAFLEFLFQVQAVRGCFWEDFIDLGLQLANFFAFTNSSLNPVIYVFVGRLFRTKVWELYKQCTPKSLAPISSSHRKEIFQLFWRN
Put plainly: NanoBRET screen HiBiT-BDKRB1 in HEK293. The conditions noted are these: BDKRB1. The protocol:
as §1, §2

A further test concerns the target T3, GALR2 (Homo sapiens, UniProt O43603).
T3 construct: purchased Promega (in-house HiBiT-GPCR construct library, NanoBRET)
T3 sequence (O43603 1-387): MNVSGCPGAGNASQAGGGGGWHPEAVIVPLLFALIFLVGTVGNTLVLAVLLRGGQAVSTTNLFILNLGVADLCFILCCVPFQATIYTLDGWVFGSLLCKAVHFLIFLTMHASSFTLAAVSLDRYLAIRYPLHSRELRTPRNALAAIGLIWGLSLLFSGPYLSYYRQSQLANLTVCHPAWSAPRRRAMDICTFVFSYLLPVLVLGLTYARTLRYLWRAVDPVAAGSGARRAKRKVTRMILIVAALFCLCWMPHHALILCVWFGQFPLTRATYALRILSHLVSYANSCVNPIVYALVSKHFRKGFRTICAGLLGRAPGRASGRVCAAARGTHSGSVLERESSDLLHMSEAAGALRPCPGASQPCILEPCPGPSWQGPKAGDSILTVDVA
Put plainly: NanoBRET screen HiBiT-GALR2 in HEK293. The following applies: GALR2. The protocol: as §1, §2

A further test has as its target T4, GRM5 (Homo sapiens, UniProt P41594).
T4 construct: purchased Promega (in-house HiBiT-GPCR construct library, NanoBRET)
Put plainly: NanoBRET screen HiBiT-GRM5 in HEK293. The conditions noted are these: GRM5. How it is done:
as §1, §2

T4 sequence (P41594 21-1212): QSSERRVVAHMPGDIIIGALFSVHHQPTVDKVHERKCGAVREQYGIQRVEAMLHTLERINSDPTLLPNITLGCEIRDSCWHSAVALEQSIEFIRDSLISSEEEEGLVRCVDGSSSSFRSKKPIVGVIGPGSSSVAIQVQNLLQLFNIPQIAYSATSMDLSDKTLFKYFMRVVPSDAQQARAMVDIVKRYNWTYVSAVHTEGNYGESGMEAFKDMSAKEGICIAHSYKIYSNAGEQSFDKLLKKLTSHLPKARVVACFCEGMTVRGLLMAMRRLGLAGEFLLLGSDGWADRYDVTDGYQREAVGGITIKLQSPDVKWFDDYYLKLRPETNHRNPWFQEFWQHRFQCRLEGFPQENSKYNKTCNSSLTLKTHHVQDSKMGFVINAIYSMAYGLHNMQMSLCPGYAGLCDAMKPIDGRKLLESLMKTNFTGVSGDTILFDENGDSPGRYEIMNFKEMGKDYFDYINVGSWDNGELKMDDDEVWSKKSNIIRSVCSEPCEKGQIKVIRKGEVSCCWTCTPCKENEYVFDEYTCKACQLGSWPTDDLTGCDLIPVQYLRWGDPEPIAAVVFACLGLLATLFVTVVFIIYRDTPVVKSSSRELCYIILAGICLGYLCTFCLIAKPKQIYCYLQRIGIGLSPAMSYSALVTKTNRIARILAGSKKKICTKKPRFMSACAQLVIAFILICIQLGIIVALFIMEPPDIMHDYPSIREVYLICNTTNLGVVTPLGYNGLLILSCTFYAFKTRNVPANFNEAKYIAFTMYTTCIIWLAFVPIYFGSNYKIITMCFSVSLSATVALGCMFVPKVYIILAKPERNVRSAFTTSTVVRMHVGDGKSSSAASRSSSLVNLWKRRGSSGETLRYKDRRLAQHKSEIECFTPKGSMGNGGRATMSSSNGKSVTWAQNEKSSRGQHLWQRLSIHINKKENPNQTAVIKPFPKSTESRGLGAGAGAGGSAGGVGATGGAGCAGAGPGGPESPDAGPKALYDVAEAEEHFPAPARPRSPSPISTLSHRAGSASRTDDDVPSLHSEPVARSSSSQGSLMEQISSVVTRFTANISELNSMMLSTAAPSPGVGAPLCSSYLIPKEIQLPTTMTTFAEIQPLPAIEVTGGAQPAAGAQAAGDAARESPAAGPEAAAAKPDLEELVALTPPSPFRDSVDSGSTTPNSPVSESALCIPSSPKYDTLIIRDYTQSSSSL

Turning to `CN1CCN(C2=Nc3cc(Cl)ccc3Nc3ccc(CNC(=O)CCOCCOCCOCCOCCNC(=O)CCc4ccc5n4[B-](F)(F)[N+]4=C(c6ccc[nH]6)C=CC4=C5)cc32)CC1` [Clozapine-b-2-NB590], the “NanoBRET Fold Response” value turned out to be 0.99 at ADORA1 (0.1μM tracer); 0.97 at ADORA1 (1μM tracer); 0.99 on BDKRB1 (0.1μM tracer); 0.92 on BDKRB1 (1μM tracer); 0.93 on GALR2 (0.1μM tracer); 0.99 at GALR2 (1μM tracer). For the same compound, the “NanoBRET Fold Response” value at GRM5 (0.1μM tracer) was 0.99; at GRM5 (1μM tracer), 1.01.
As to `Cc1nc2n(c(=O)c1CCN1CCC(c3noc4cc(F)ccc34)CC1)CCCC2OC(=O)NCCOCCOCCOCCOCCNC(=O)CCc1ccc2n1[B-](F)(F)[N+]1=C(c3ccc[nH]3)C=CC1=C2` (stereo not shown) [Risperidone-2-NB590], the “NanoBRET Fold Response” value on ADORA1 (tracer 0.1μM) came to 1.04; on ADORA1 (tracer 1μM) it was 1.05; on BDKRB1 (tracer 0.1μM), 1.28; on BDKRB1 (tracer 1μM), 0.77; on GALR2 (tracer 0.1μM), 1.03; on GALR2 (tracer 1μM) it was 0.97. Besides, the results for the “NanoBRET Fold Response” value on GRM5 (tracer 0.1μM) and on GRM5 (tracer 1μM) were 0.98 and 1.02, respectively.

Source of the values: article PMC8151276, “An Integrated Approach toward NanoBRET Tracers for Analysis of GPCR Ligand Engagement” (Molecules, 2021).
